{"source": "patent US20230293526A1", "about": "“METHOD FOR TREATING CANCER WITH A REVERSE TRANSCRIPTASE INHIBITOR” (PrimeFour Therapeutics, Inc., priority 2020, published 2023)", "assay_in_all_cases": "Cell proliferation CellTiterGlo Ex.2", "type_in_all_cases": "cell-based", "key": {"A427": {"system": "A427", "conditions": "Homo sapiens, A-427; A427 (Lung), 72 h", "in_short": "(§1)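 Cells were seeded, incubated overnight at 37 °C, then dosed at 10, 3, 1, 0.3, 0.1, 0.03, 0.01 and 0.003 μM for 72 h (5% or 10% CO2). CellTiterGlo luminescence gave percent viability relative to 0.10% DMSO (high) and 10 μM staurosporine (low) controls.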"}, "A549": {"system": "A549", "conditions": "Homo sapiens; A549 (Lung), 72 h", "in_short": "as §1"}, "BT-20": {"system": "BT-20", "conditions": "Homo sapiens; BT-20 (Breast), 72 h", "in_short": "as §1"}, "EFM-192A": {"system": "EFM-192A", "conditions": "EFM-192A (Breast), 72 h", "in_short": "as §1"}, "EFM-19": {"system": "EFM-19", "conditions": "Homo sapiens; EFM-19 (Breast), 72 h", "in_short": "as §1"}, "EPLC-272H": {"system": "EPLC-272H", "conditions": "Homo sapiens; EPLC-272H (Lung), 72 h", "in_short": "as §1"}, "H4": {"system": "H4", "conditions": "H4 (Brain), 72 h", "in_short": "as §1"}, "HCC202": {"system": "HCC202", "conditions": "HCC202 (Breast), 72 h", "in_short": "as §1"}, "HCT-15": {"system": "HCT-15", "conditions": "Homo sapiens; HCT-15 (Colon), 72 h", "in_short": "as §1"}, "HL-60": {"system": "HL-60", "conditions": "Homo sapiens; HL-60 (Blood), 72 h", "in_short": "as §1"}, "HeLa": {"system": "HeLa", "conditions": "Homo sapiens; HeLa (Cervix), 72 h", "in_short": "as §1"}, "Hep3B2.1-7": {"system": "Hep3B2.1-7", "conditions": "Hep3B2.1-7 (Liver), 72 h", "in_short": "as §1"}, "HuH7": {"system": "HuH7", "conditions": "Homo sapiens, Huh-7; HuH7 (Liver), 72 h", "in_short": "as §1"}, "Hutu 80": {"system": "Hutu 80", "conditions": "Homo sapiens, HuTu80; Hutu 80 (Duodenum), 72 h", "in_short": "as §1"}, "KG-1": {"system": "KG-1", "conditions": "Homo sapiens; KG-1 (Blood), 72 h", "in_short": "as §1"}, "Kato III": {"system": "Kato III", "conditions": "Homo sapiens; Kato III (Stomach), 72 h", "in_short": "as §1"}, "LOU-NH91": {"system": "LOU-NH91", "conditions": "LOU-NH91 (Lung), 72 h", "in_short": "as §1"}, "M07e": {"system": "M07e", "conditions": "M-07e; M07e (Blood), 72 h", "in_short": "as §1"}, "MCF-7": {"system": "MCF-7", "conditions": "Homo sapiens, MCF7; MCF-7 (Breast), 72 h", "in_short": "as §1"}, "MDA MB 231": {"system": "MDA MB 231", "conditions": "Homo sapiens; MDA MB 231 (Breast), 72 h", "in_short": "as §1"}, "MDA-MB-468": {"system": "MDA-MB-468", "conditions": "Homo sapiens; MDA-MB-468 (Breast), 72 h", "in_short": "as §1"}, "NALM-6": {"system": "NALM-6", "conditions": "Homo sapiens; NALM-6 (Blood), 72 h", "in_short": "as §1"}, "NCI-H2110": {"system": "NCI-H2110", "conditions": "NCI-H2110 (Lung), 72 h", "in_short": "as §1"}, "NCI-H82": {"system": "NCI-H82", "conditions": "Homo sapiens; NCI-H82 (Lung), 72 h", "in_short": "as §1"}, "OCI-LY19": {"system": "OCI-LY19", "conditions": "Homo sapiens; OCI-LY19 (Blood), 72 h", "in_short": "as §1"}, "OV56": {"system": "OV56", "conditions": "OV56 (Ovary), 72 h", "in_short": "as §1"}, "RERF-LC-Ad2": {"system": "RERF-LC-Ad2", "conditions": "RERF-LC-Ad2 (Lung), 72 h", "in_short": "as §1"}, "SK-N-FI": {"system": "SK-N-FI", "conditions": "Homo sapiens; SK-N-FI (Brain), 72 h", "in_short": "as §1"}, "SW948": {"system": "SW948", "conditions": "Homo sapiens; SW948 (Colon), 72 h", "in_short": "as §1"}, "Saos-2 EC": {"system": "Saos-2 EC", "conditions": "Homo sapiens; Saos-2 EC (Bone), 72 h", "in_short": "as §1"}, "T-47D": {"system": "T-47D", "conditions": "Homo sapiens, T47D; T-47D (Breast), 72 h", "in_short": "as §1"}, "T98G": {"system": "T98G", "conditions": "Homo sapiens; T98G (Brain), 72 h", "in_short": "as §1"}, "U-937": {"system": "U-937", "conditions": "Homo sapiens; U-937 (Blood), 72 h", "in_short": "as §1"}, "U251MG": {"system": "U251MG", "conditions": "Homo sapiens, U-251; U251MG (Brain), 72 h", "in_short": "as §1"}}}
{"smiles": "C#C[C@]1(CO)O[C@@H](n2cnc3c(=O)[nH]c(N)nc32)C[C@@H]1O", "note": "[compound 13]", "values": [{"measurement": "IC50", "setting": "A427", "result": 0.55, "unit": "µM"}, {"measurement": "IC50", "setting": "A549", "result": "> 10", "unit": "µM"}, {"measurement": "IC50", "setting": "BT-20", "result": "> 10", "unit": "µM"}, {"measurement": "IC50", "setting": "EFM-192A", "result": "> 10", "unit": "µM"}, {"measurement": "IC50", "setting": "EFM-19", "result": 2.65, "unit": "µM"}, {"measurement": "IC50", "setting": "EPLC-272H", "result": 6.63, "unit": "µM"}, {"measurement": "IC50", "setting": "H4", "result": "> 10", "unit": "µM"}, {"measurement": "IC50", "setting": "HCC202", "result": "> 10", "unit": "µM"}, {"measurement": "IC50", "setting": "HCT-15", "result": "> 10", "unit": "µM"}, {"measurement": "IC50", "setting": "HL-60", "result": 1.13, "unit": "µM"}, {"measurement": "IC50", "setting": "HeLa", "result": 1.3, "unit": "µM"}, {"measurement": "IC50", "setting": "Hep3B2.1-7", "result": 0.82, "unit": "µM"}, {"measurement": "IC50", "setting": "HuH7", "result": 1.24, "unit": "µM"}, {"measurement": "IC50", "setting": "Hutu 80", "result": 1.44, "unit": "µM"}, {"measurement": "IC50", "setting": "KG-1", "result": "> 10", "unit": "µM"}, {"measurement": "IC50", "setting": "Kato III", "result": 4.86, "unit": "µM"}, {"measurement": "IC50", "setting": "LOU-NH91", "result": "> 10", "unit": "µM"}, {"measurement": "IC50", "setting": "M07e", "result": 4.07, "unit": "µM"}, {"measurement": "IC50", "setting": "MCF-7", "result": "> 10", "unit": "µM"}, {"measurement": "IC50", "setting": "MDA MB 231", "result": 3.85, "unit": "µM"}, {"measurement": "IC50", "setting": "MDA-MB-468", "result": "> 10", "unit": "µM"}, {"measurement": "IC50", "setting": "NALM-6", "result": 0.25, "unit": "µM"}, {"measurement": "IC50", "setting": "NCI-H2110", "result": 3.41, "unit": "µM"}, {"measurement": "IC50", "setting": "NCI-H82", "result": 6.46, "unit": "µM"}, {"measurement": "IC50", "setting": "OCI-LY19", "result": 0.56, "unit": "µM"}, {"measurement": "IC50", "setting": "OV56", "result": 1.99, "unit": "µM"}, {"measurement": "IC50", "setting": "RERF-LC-Ad2", "result": 2.58, "unit": "µM"}, {"measurement": "IC50", "setting": "SK-N-FI", "result": "> 10", "unit": "µM"}, {"measurement": "IC50", "setting": "SW948", "result": 5.02, "unit": "µM"}, {"measurement": "IC50", "setting": "Saos-2 EC", "result": 3.99, "unit": "µM"}, {"measurement": "IC50", "setting": "T-47D", "result": "> 10", "unit": "µM"}, {"measurement": "IC50", "setting": "T98G", "result": "> 10", "unit": "µM"}, {"measurement": "IC50", "setting": "U-937", "result": 1.12, "unit": "µM"}, {"measurement": "IC50", "setting": "U251MG", "result": "> 10", "unit": "µM"}]}
